# Reference: the supplement of paper PMC11208160
# Assay: recombinant UMI read abundance after kanamycin selection (control-corrected) (log10(CPM+1)); higher = more efficient recombination; extreme values may be limits of the assay; sequences stand for … in AGTGCAGAGAAAATCGGCCAGTTTTCTCTGCCTGCAGTCCGCATGCCGTGGGACCCCTTGGGTTCTAACCTGTTGCCTAGATTTATGCAGCGGACTGCCTTTCTCCCAAAGTGATAAACCGG…AGGTTGGTTTCACT; site = the 11-nt donor
# How it was run: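 The measure is log10(CPM+1) for recombinant UMIs. These were PCR-amplified across the donor–target junction and sequenced after Escherichia coli carrying a donor and donor-binding-loop pair library and a target plasmid with T7-inducible IS621 bridge recombinase was plated on IPTG (0.07 mM) plus kanamycin or unselected. CPM were averaged over two replicates and scaled by control-derived factors.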
# 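Further: IS621 bridge recombinase in Escherichia coli cells against a fixed T5 target plasmid.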
row,Sequence,recombinant UMI read abundance (log10)
1,AGCGTAGCATGGACCGGTTTTCCCGGTAATCCGTATTTGTT (site AGCTTAGCTAA),0.00472
2,GAGCTCACATGGACCGGTTTTCCCGGTAATCCGTATTTGAT (site GAACTCACTAT),0.9
3,ACATAGACATGGACCGGTTTTCCCGGTAATCCGTATTTGGG (site ACTTAGACTCC),0.0189
4,CGGGAACCATGGACCGGTTTTCCCGGTAATCCGTATTTGGT (site CGGGAACCTAG),0
5,CCTCATACATGGACCGGTTTTCCCGGTAATCCGTATTTGGC (site CCTCATACTGC),0
6,GCTAAGCCATGGACCGGTTTTCCCGGTAATCCGTATTTGGG (site GCTAAGCCTCC),0.0172
7,AGCCCTTCATGGACCGGTTTTCCCGGTAATCCGTATTTGAC (site AGCCCTTCTGT),2.11
8,ATGTAAGCATGGACCGGTTTTCCCGGTAATCCGTATTTGGC (site ATGTATGCTGC),0
9,GTATGCACATGGACCGGTTTTCCCGGTAATCCGTATTTGTC (site GTATGCACTCA),0.0163
10,TATCCATCATGGACCGGTTTTCCCGGTAATCCGTATTTGCG (site TATCCATCTCG),0.52
11,AGGACGACATGGACCGGTTTTCCCGGTAATCCGTATTTGCA (site AGGAGGACTTG),1.38
12,CCGTTAACATGGACCGGTTTTCCCGGTAATCCGTATTTGCT (site CCGTTAACTAG),2.18
13,TGATCATCATGGACCGGTTTTCCCGGTAATCCGTATTTGCG (site TGATCATCTCG),1.27
14,CTAGTATCATGGACCGGTTTTCCCGGTAATCCGTATTTGAC (site CTAGTTGCTGT),0
15,GTTCGAGCATGGACCGGTTTTCCCGGTAATCCGTATTTGCG (site GTTCGAGCTCG),1.39
16,TGCTGTCCATGGACCGGTTTTCCCGGTAATCCGTATTTGTT (site TGCTGTCCTAA),0.00448
17,ACTGGTACATGGACCGGTTTTCCCGGTAATCCGTATTTGAA (site ACTGGTACTTT),1.1
18,CTAGTCTCATGGACCGGTTTTCCCGGTAATCCGTATTTGAC (site CTAGTATCTGT),0.627
19,CAATTCCCATGGACCGGTTTTCCCGGTAATCCGTATTTGCT (site CAATTCCCTAC),0.184
20,CTAGTATCATGGACCGGTTTTCCCGGTAATCCGTATTTGAC (site CTAGTATCTAC),0.564
21,GGACACCCATGGACCGGTTTTCCCGGTAATCCGTATTTGTT (site GGCCACCCTAA),0.011
22,ACCGAACCATGGACCGGTTTTCCCGGTAATCCGTATTTGGA (site ACCGAACCTTC),0.00378
23,TATTTGGCATGGACCGGTTTTCCCGGTAATCCGTATTTGGG (site TATTTGGCTCC),0.0427
24,AAGAATTCATGGACCGGTTTTCCCGGTAATCCGTATTTGTA (site AAGAATTCTTA),2.33
25,ATTGTGACATGGACCGGTTTTCCCGGTAATCCGTATTTGGT (site ATTGGGACTAC),0.0143

row,Sequence,recombinant UMI read abundance (log10)
1,TGTTCCACATGGACCGGTTTTCCCGGTAATCCGTATTTGTA (site TGTTCCCCTTA),0.00983
2,CCCCACACATGGACCGGTTTTCCCGGTAATCCGTATTTGTT (site CCCCACACTCA),0.35
3,TGTTTGGCATGGACCGGTTTTCCCGGTAATCCGTATTTGCT (site TGTTTGGCTAG),0
4,CCCGCTCCATGGACCGGTTTTCCCGGTAATCCGTATTTGCA (site CCCGCTCCTTG),0
5,GTAGTCGCATGGACCGGTTTTCCCGGTAATCCGTATTTGCT (site GTAGTCGCTCG),1.77
6,TAATGGGCATGGACCGGTTTTCCCGGTAATCCGTATTTGGG (site TAATGCGCTCC),0.0166
7,ATCTATACATGGACCGGTTTTCCCGGTAATCCGTATTTGAC (site GTCTATACTGT),0.424
8,GCTTGCCCATGGACCGGTTTTCCCGGTAATCCGTATTTGAG (site GCTTGCCCTCT),0.0701
9,CAGGCGCCATGGACCGGTTTTCCCGGTAATCCGTATTTGTG (site CAGGCGCCTCA),0.428
10,AATGGCCCATGGACCGGTTTTCCCGGTAATCCGTATTTGTA (site AATGGCCCTTA),0.0128
11,GTTCGAGCATGGACCGGTTTTCCCGGTAATCCGTATTTGCG (site GTTCGAGCTGG),0.838
12,GTGTAGGCATGGACCGGTTTTCCCGGTAATCCGTATTTGTG (site GTGAAGGCTCA),0.891
13,GCGAAGCCATGGACCGGTTTTCCCGGTAATCCGTATTTGGG (site GCGTAGCCTCC),0.0104
14,GAGCTCACATGGACCGGTTTTCCCGGTAATCCGTATTTGAT (site GGGCTCACTAT),0.394
15,TTTGTGTCATGGACCGGTTTTCCCGGTAATCCGTATTTGCG (site TTTGTGTCTCG),0.535
16,CAAGCAGCATGGACCGGTTTTCCCGGTAATCCGTATTTGCG (site CAAGCAGCTTG),1.68
17,CCCGGTCCATGGACCGGTTTTCCCGGTAATCCGTATTTGGA (site CCCGGTCCTTC),0.0256
18,GCGAAGCCATGGACCGGTTTTCCCGGTAATCCGTATTTGAG (site GCGAAGCCTCG),0
19,GTATGTACATGGACCGGTTTTCCCGGTAATCCGTATTTGAC (site GTAAGTACTGT),0.262
20,GATGTACCATGGACCGGTTTTCCCGGTAATCCGTATTTGGC (site GATGTACCTGC),0.247
21,CTAGTTACATGGACCGGTTTTCCCGGTAATCCGTATTTGTC (site CTAGTTACTGA),2.57
22,CGGAACCCATGGACCGGTTTTCCCGGTAATCCGTATTTGTG (site CGGAATCCTAA),0
23,CCGCTGCCATGGACCGGTTTTCCCGGTAATCCGTATTTGAA (site CCGCTGCCTTT),0.0286
24,CGGAATCCATGGACCGGTTTTCCCGGTAATCCGTATTTGGT (site CGGAATCCTAG),0
25,CGTTTGGCATGGACCGGTTTTCCCGGTAATCCGTATTTGCC (site CGTTTGGCTCG),0.0176

row,Sequence,recombinant UMI read abundance (log10)
1,AATGTTACATGGACCGGTTTTCCCGGTAATCCGTATTTGCT (site AATGTGACTAG),0.00476
2,GGGGCACCATGGACCGGTTTTCCCGGTAATCCGTATTTGTA (site GGGGCACCTTT),0.0754
3,CCTAATACATGGACCGGTTTTCCCGGTAATCCGTATTTGGC (site CCTTATACTGC),0
4,CTTTAGACATGGACCGGTTTTCCCGGTAATCCGTATTTGAG (site CGTTAGACTCT),0.118
5,AGATCTACATGGACCGGTTTTCCCGGTAATCCGTATTTGTG (site AAATCTACTCA),0.223
6,GGTCCGGCATGGACCGGTTTTCCCGGTAATCCGTATTTGTC (site GGTCCGGCTGA),0
7,CGGGAACCATGGACCGGTTTTCCCGGTAATCCGTATTTGAT (site CGGGTACCTAT),0
8,AGCCTTGCATGGACCGGTTTTCCCGGTAATCCGTATTTGTT (site AGCCTGGCTAA),0.0183
9,TAATCAGCATGGACCGGTTTTCCCGGTAATCCGTATTTGGG (site TAATGAGCTCC),0.00426
10,TACAGTTCATGGACCGGTTTTCCCGGTAATCCGTATTTGAG (site TACAGTTCTCT),1.31
11,GTTGTTCCATGGACCGGTTTTCCCGGTAATCCGTATTTGTT (site GTTGTTCCTAT),0
12,GGATCATCATGGACCGGTTTTCCCGGTAATCCGTATTTGAT (site GGATCATCTAT),0.00412
13,TAAAGGCCATGGACCGGTTTTCCCGGTAATCCGTATTTGTA (site TAAAGGCCTTA),0.544
14,CACGTGGCATGGACCGGTTTTCCCGGTAATCCGTATTTGGA (site CACCTGGCTTC),0.475
15,GGTCCAACATGGACCGGTTTTCCCGGTAATCCGTATTTGTT (site GGTCCAACTCA),0.0106
16,GGAAAGGCATGGACCGGTTTTCCCGGTAATCCGTATTTGCT (site TGAAAGGCTAG),1.25
17,CATTCGACATGGACCGGTTTTCCCGGTAATCCGTATTTGGG (site CACTCGACTCC),0.0107
18,ATCAGGCCATGGACCGGTTTTCCCGGTAATCCGTATTTGAC (site ATGAGGCCTGT),0
19,TGCCGATCATGGACCGGTTTTCCCGGTAATCCGTATTTGGT (site TGCCGATCTAC),0
20,TAAGCGCCATGGACCGGTTTTCCCGGTAATCCGTATTTGTG (site CAAGCGCCTCA),0.0975
21,TTAGCGGCATGGACCGGTTTTCCCGGTAATCCGTATTTGCT (site TTTGCGGCTAG),0
22,CCAGCGCCATGGACCGGTTTTCCCGGTAATCCGTATTTGTG (site CGAGCGCCTCA),0.0423
23,CAATTCTCATGGACCGGTTTTCCCGGTAATCCGTATTTGAA (site CAATCCTCTTT),0.327
24,CTACTAACATGGACCGGTTTTCCCGGTAATCCGTATTTGGG (site CTACTAACTCC),0.54
25,GCGAAGCCATGGACCGGTTTTCCCGGTAATCCGTATTTGGG (site GCGAAGCCTCT),0.00749
